Assay results as given in paper PMC9959982 (International Journal of Molecular Sciences, 2023).
Where two headings read alike, the source gives them in different places.

Experiments:
HIV-1 (NL4.3) [1] = details: printed in Figure 1, prototypes of previous work; cited from earlier work
EV-A71 BrCr strain [2] = details: Figure 1; read-out: EV71 EC50; cited from earlier work
MT-4 cells = assay: Cytotoxicity in MT-4 cells (MTS/PES); type: cell-based; details: 50% reduction in cell viability, 5 days
rhabdosarcoma (RD) cells = assay: Adverse effect on uninfected RD cells (MTS/PMS); details: RD cells
EV-A71 BrCr strain [3] = assay: Virus-induced cell death assay, EV-A71 BrCr lab strain in RD cells; type: cell-based, Enterovirus A71; details: for EC50: EV-A71 BrCr (wild type)
in vitro = details: human
EV-A71 VP1_S184T = type: cell-based, Enterovirus A71; details: VP1_S184T mutant
EV-A71 VP1_P246S = type: cell-based, Enterovirus A71; details: VP1_P246S mutant
EV-A71 VP1_S184T_P246S = type: cell-based, Enterovirus A71; details: VP1_S184T_P246S double mutant
HIV-1 (NL4.3) [4] = assay: microbe, parasite or virus in culture; type: cell-based; details: for EC50: virus-induced cytopathic effect reduced by 50%
HIV-2 (ROD) = assay: Inhibition of HIV-induced cytopathic effect in MT-4 cells, HIV-2; type: cell-based
[5] = Cytotoxicity in MT-4 cells (MTS/PES); type: cell-based; details: human, 50% reduction in cell viability
[6] = Adverse effect on uninfected RD cells (MTS/PMS); details: human, uninfected rhabdosarcoma (RD) cells
[7] = Enterovirus A, EVA71, RD, RD cells
[8] = Human immunodeficiency virus 1, MT4, MT-4 cells
[9] = Human immunodeficiency virus 2, MT4, virus-induced cytopathic effect reduced by 50%

## O=C(CCC(CCC(=O)NC(Cc1c(-c2cc(C(=O)O)cc(C(=O)O)c2)[nH]c2ccccc12)C(=O)O)(CCC(=O)NC(Cc1c(-c2cc(C(=O)O)cc(C(=O)O)c2)[nH]c2ccccc12)C(=O)O)[N+](=O)[O-])NC(Cc1c(-c2cc(C(=O)O)cc(C(=O)O)c2)[nH]c2ccccc12)C(=O)O (stereo not shown) [AL-470]
HIV-1 (NL4.3) [1]
  EC50: 0.27 ± 0.12 µM
EV-A71 BrCr strain [2]
  EC50: 0.35 ± 0.03 µM

## O=C(CCOCC(COCCC(=O)NCCNC(=O)Nc1cc(C(=O)O)cc(C(=O)O)c1)(COCCC(=O)NCCNC(=O)Nc1cc(C(=O)O)cc(C(=O)O)c1)COCCC(=O)NCCNC(=O)Nc1cc(C(=O)O)cc(C(=O)O)c1)NCCNC(=O)Nc1cc(C(=O)O)cc(C(=O)O)c1 [Compound 40]
MT-4 cells
  CC50: > 50 µM
Rhabdosarcoma (RD) cells
  CC50: > 100 µM

## CCOC(=O)c1ccc(OCCC2CCN(c3ccc(C)nn3)CC2)cc1 [Pirodavir, pirodavir, reference compound]
EV-A71 BrCr strain [3]
  SI selectivity index (CC50/EC50): >333
EV-A71 BrCr strain [3]; [7]
  EC50: 0.3 ± 0.001 µM
In vitro
  CC50 at 3 days: > 100 µM

## O=C(CCOCC(COCCC(=O)NC(Cc1c(CCCNC(=O)Nc2cc(C(=O)O)cc(C(=O)O)c2)[nH]c2ccccc12)C(=O)O)(COCCC(=O)NC(Cc1c(CCCNC(=O)Nc2cc(C(=O)O)cc(C(=O)O)c2)[nH]c2ccccc12)C(=O)O)COCCC(=O)NC(Cc1c(CCCNC(=O)Nc2cc(C(=O)O)cc(C(=O)O)c2)[nH]c2ccccc12)C(=O)O)NC(Cc1c(CCCNC(=O)Nc2cc(C(=O)O)cc(C(=O)O)c2)[nH]c2ccccc12)C(=O)O (stereo not shown) [Compound 23]
MT-4 cells
  CC50: > 50 µM
EV-A71 VP1_S184T
  EC50: 0.41 ± 0.03 µM
EV-A71 VP1_P246S
  EC50: 0.22 ± 0.01 µM
EV-A71 VP1_S184T_P246S
  EC50: 0.58 ± 0.2 µM
Rhabdosarcoma (RD) cells
  CC50: > 50 µM

## O=C(CCOCC(COCCC(=O)Nc1cc(C(=O)O)cc(C(=O)O)c1)(COCCC(=O)Nc1cc(C(=O)O)cc(C(=O)O)c1)COCCC(=O)Nc1cc(C(=O)O)cc(C(=O)O)c1)Nc1cc(C(=O)O)cc(C(=O)O)c1 [Compound 35]
HIV-1 (NL4.3) [4]; [8]
  EC50: > 50 µM
HIV-1 (NL4.3) [4]; at concentrations up to 50 µM
  activity against HIV-1: inactive
HIV-2 (ROD); [9]
  EC50: > 50 µM
[5]
  CC50 at 5 days: > 50 µM
EV-A71 BrCr strain [3]; RD cells
  EC50: 8.48 ± 2.34 µM
EV-A71 BrCr strain [3]; EV-A71 BrCr, RD cells
  SI selectivity index (CC50/EC50): >12
EV-A71 BrCr strain [3]; [7]
  EC50: 8.5 µM
[6]
  CC50 at 3 days: > 100 µM

## O=C(CCOCC(COCCC(=O)NC(Cc1c(CCCCCCCCNC(=O)Nc2cc(C(=O)O)cc(C(=O)O)c2)[nH]c2ccccc12)C(=O)O)(COCCC(=O)NC(Cc1c(CCCCCCCCNC(=O)Nc2cc(C(=O)O)cc(C(=O)O)c2)[nH]c2ccccc12)C(=O)O)COCCC(=O)NC(Cc1c(CCCCCCCCNC(=O)Nc2cc(C(=O)O)cc(C(=O)O)c2)[nH]c2ccccc12)C(=O)O)NC(Cc1c(CCCCCCCCNC(=O)Nc2cc(C(=O)O)cc(C(=O)O)c2)[nH]c2ccccc12)C(=O)O (stereo not shown) [Compound 25]
MT-4 cells
  CC50: > 50 µM
Rhabdosarcoma (RD) cells
  CC50: > 100 µM

## O=C(O)CCCc1[nH]c2ccccc2c1C[C@H](NC(=O)CCOCC(COCCC(=O)N[C@@H](Cc1c(CCCC(=O)O)[nH]c2ccccc12)C(=O)O)(COCCC(=O)N[C@H](Cc1c(CCCC(=O)O)[nH]c2ccccc12)C(=O)O)COCCC(=O)N[C@H](Cc1c(CCCC(=O)O)[nH]c2ccccc12)C(=O)O)C(=O)O [Compound 32]
MT-4 cells
  CC50: > 50 µM
Rhabdosarcoma (RD) cells
  CC50: > 100 µM

## dextran sulfate-5000 [DS-5000]
HIV-1 (NL4.3) [4]; MT-4 cells
  EC50: 0.07 ± 0.02 µM
HIV-2 (ROD); virus-induced cytopathic effect reduced by 50%
  EC50: 0.03 ± 0.01 µM

## O=C(CCOCC(COCCC(=O)NC(Cc1c(CCCCCNC(=O)Nc2cc(C(=O)O)cc(C(=O)O)c2)[nH]c2ccccc12)C(=O)O)(COCCC(=O)NC(Cc1c(CCCCCNC(=O)Nc2cc(C(=O)O)cc(C(=O)O)c2)[nH]c2ccccc12)C(=O)O)COCCC(=O)NC(Cc1c(CCCCCNC(=O)Nc2cc(C(=O)O)cc(C(=O)O)c2)[nH]c2ccccc12)C(=O)O)NC(Cc1c(CCCCCNC(=O)Nc2cc(C(=O)O)cc(C(=O)O)c2)[nH]c2ccccc12)C(=O)O (stereo not shown) [Compound 24]
MT-4 cells
  CC50: 30.9 ± 0.98 µM
Rhabdosarcoma (RD) cells
  CC50: > 100 µM

## CN[C@@H]1[C@H](O[C@@H]2OC[C@@H](O)[C@H](O)[C@H]2O)[C@@H](O)[C@H](O[C@H]2c3cc(C)c(C(=O)N[C@H](C)C(=O)O)c(O)c3-c3c(cc4c(c3O)C(=O)c3cc(OC)cc(O)c3C4=O)[C@@H]2O)O[C@@H]1C [PRM-A, pradimicin A]
HIV-1 (NL4.3) [4]; [8]
  EC50: 3.3 ± 1.2 µM
HIV-1 (NL4.3) [4]; MT-4 cells, Table 1
  SI selectivity index (CC50/EC50): >30.3
HIV-2 (ROD); [9]
  EC50: 5.9 ± 3.7 µM
[5]
  CC50 at 5 days: > 100 µM

## O=C(O)CCCCCCc1[nH]c2ccccc2c1C[C@H](NC(=O)CCOCC(COCCC(=O)N[C@@H](Cc1c(CCCCCCC(=O)O)[nH]c2ccccc12)C(=O)O)(COCCC(=O)N[C@H](Cc1c(CCCCCCC(=O)O)[nH]c2ccccc12)C(=O)O)COCCC(=O)N[C@H](Cc1c(CCCCCCC(=O)O)[nH]c2ccccc12)C(=O)O)C(=O)O [Compound 33]
MT-4 cells
  CC50: > 50 µM
Rhabdosarcoma (RD) cells
  CC50: > 100 µM
